The record followed here is patent US5780505A, “Substituted N-arylmethylamino derivatives of cyclobutene-3, 4-diones” (American Home Products Corporation, priority 1997, dated 1998).

This assay relates to Isolated Rat Bladder Strips. In words: Inhibition of contractions in isolated rat bladder strips (KCl-enhanced contractile activity; smooth muscle relaxation). The note with it: for IC50 / percent contraction at 30 µM: 0.5 h; for IC50: isolated rat bladder strips, 15 mM additional KCl, 30 minute challenge, read-out: IC50 (50% inhibition of pre-drug contractile activity); for inhibition at 30 µM / percent contraction at 30 µM: Rattus norvegicus; for inhibition at 30 µM: read-out: Percent inhibition at 30 μM (I); for percent contraction at 30 µM: read-out: Percent contraction at 30 μM (C). The class given is cell-based, Sprague-Dawley rats. From the text:
The smooth muscle relaxing activity of the compounds of this invention was established in accordance with standard pharmaceutically accepted test procedures with representative compounds as follows:
Sprague-Dawley rats (150-200 g) are rendered unconscious by CO2 asphyxiation and then euthanized by cervical dislocation. The bladder is removed into warm (37 deg.C) physiological salt solution (PSS) of the following composition (mM): NaCl, 118.4; KCl, 4.7; CaCl2, 2.5; MgSO4, 4.7; H2 O, 1,2; NaHCO3, 24.9; KH2 PO4, 1,2; glucose, 11.1; EDTA, 0.023; gassed with […]; pH 7.4. The bladder is opened and then dut into strips 1-2 mm in width and 7-10 mm in length. The strips are subsequently suspended in a 10 mL tissue bath under an initial resting tension of 1.5 g. The strips are held in place by two surgical clips one of which is attached to a fixed hook while the other is attached to an isometric force transducer. […] The carbachol is then washed out and the tissue allowed to relax to its resting level of activity. Following a further 30 min period of recovery an additional 15 mM KCl are introduced into the tissue bath. This increase in KCl concentration results in a large increase in the amplitude of spontaneous contractions (and initiation of contractions in previously quiescent strips) superimposed upon a small increase in basal tone. Following stabilization of this enhanced level of contractile activity, incremental increases in the concentration of test compound or vehicle are introduced into the tissue bath. Contractile activity is measured for each compound or vehicle concentration during the last minute of a 30 minute challenge.
The isometric force developed by the bladder strips is measured using a […] to elicit 50% inhibition of pre-drug contractile activity (IC50 concentration) and is calculated from this concentration-response curve.

As usually defined, the IC50 is the concentration needed to halve the response being measured. As a reminder, the inhibition is the share of the control response that was lost under treatment.

Regarding `C[C@@H](Nc1c(NCc2ccc(C#N)c(Cl)c2)c(=O)c1=O)C(C)(C)C` [Example 42, 2-Chloro-4-{[3,4-dioxo-2-(1,2,2-trimethyl-pronylamino)-cyclobut-1-enylamino]-methyl}-benzonitrile], the IC50 was found to be 4700 ± 1200 nM. With `CC(C)(C)Nc1c(NCc2ccc(C#N)c(Cl)c2)c(=O)c1=O` [Example 43, 4-[(2-tert-Butylamino-3,4-dioxo-cyclobut-1-enylamino)-methyl]-2-chloro-benzonitrile], the IC50 turned out to be 1100 ± 100 nM.

For the molecule `CCC(C)(C)Nc1c(NCc2ccc(C#N)c(Cl)c2)c(=O)c1=O` [Example 44, 2-Chloro-4-{[2-(1,1-dimethyl-propylamino]-3,4-dioxo-cyclobut-1-enylamino)-methyl}-benzonitrile], the IC50 is 260 ± 15 nM.

As for `CCc1cc(CNc2c(N[C@H](C)C(C)(C)C)c(=O)c2=O)ccc1C#N` [Example 45, 4-[{3,4-Dioxo-2-(1,2,2-trimethyl-propylamino)-cyclobut-1-enylamino]-methyl}-2-ethyl-benzonitrile], the inhibition at 30 µM was determined as 25 ± 2.04%.

In the case of `CCc1cc(CNc2c(NC(C)(C)C)c(=O)c2=O)ccc1C#N` [Example 46, 4-[(2-tert-Butylamino-3,4-dioxo-cyclobut-1-enylamino)-methyl]-2-ethyl-benzonitrile], the IC50 stood at 6100 ± 3800 nM.

In the case of `CCc1cc(Br)ccc1CNc1c(N[C@H](C)C(C)(C)C)c(=O)c1=O` [Example 47, 3-(4-Bromo-2-ethyl-benzylamino)-4-(1,2,2-trimethyl-propylamino)-cyclobut-3-ene-1,2-dione], the IC50 was found to be 16700 ± 6200 nM. The same measure, in the same setting: in the case of `CCc1cc(Br)ccc1CNc1c(NC(C)(C)C)c(=O)c1=O` [Example 48, 3-(4-Bromo-2-ethyl-benzylamino)-4-tert-butylamino-cyclobut-3-ene-1,2-dione] it was 270 ± 80 nM; in that of `CCc1cc(Br)ccc1CNc1c(NC(C)(C)CC)c(=O)c1=O` [Example 49, 3-(4-Bromo-2-ethyl-benzylamino)-4-(1,1-dimethyl-propylamino)-cyclobut-3-ene-1,2-dione], 1000 ± 600 nM; in that of `CCc1cc(C#N)ccc1CNc1c(NC(C)(C)CC)c(=O)c1=O` [Example 50, 4-[(1,1-Dimethyl-propylamino-3,4-dioxo-cyclobut-1-enylamino)-methyl]-3-ethyl-benzonitrile], 105 ± 5 nM. Take `Cc1cccc(C)c1CNc1c(N[C@H](C)C(C)(C)C)c(=O)c1=O` [Example 51, 3-(2,6-Dimethyl-benzylamino)-4-(1,2,2-trimethyl-propylamino)-cyclobut-3-ene-1,2-dione]: the IC50 was determined as 5600 nM, the percent contraction at 30 µM was determined as 22 ± 3.2% and the inhibition at 30 µM is 44%.

For `Cc1cccc(C)c1CNc1c(NC(C)(C)C)c(=O)c1=O` [Example 52, 3-tert-Butylamino-4-(2,6-dimethyl-benzylamino)-cyclobut-3-ene-1,2-dione], the IC50 is 5900 ± 1800 nM. The same measure, in the same setting: in the case of `CCC(C)(C)Nc1c(NCc2c(C)cccc2C)c(=O)c1=O` [Example 53, 3-(2,6-Dimethyl-benzylamino)-4-(1,1-dimethyl-propylamino)-cyclobut-3-ene-1,2-dione] it was 830 ± 660 nM.

In the case of `Cc1cccc(C)c1CNc1c(NCC(F)(F)C(F)(F)F)c(=O)c1=O` [Example 54, 3-(2,6-Dimethyl-benzylamino)-4-(2,2,3,3,3-pentafluoro-propylamino)-cyclobut-3-ene-1,2-dione], the IC50 was determined as 17800 nM and the inhibition at 30 µM amounted to 46%.

With `Cc1cc(C#N)ccc1CNc1c(N[C@H](C)C(C)(C)C)c(=O)c1=O` [Example 55, 4-{[3,4-Dioxo-2-(1,2,2-trimethyl-propylamino)-cyclobut-1-enylamino]-methyl}-3-methyl-benzonitrile], the IC50 came to 1500 ± 400 nM. Still for that read-out and setting: in the case of `COc1cc(C#N)ccc1CNc1c(N[C@H](C)C(C)(C)C)c(=O)c1=O` [Example 56, 4-{[3,4-Dioxo-2-(1,2,2-trimethyl-propylamino)-cyclobut-1-enylamino]-methyl}-3-methoxy-benzonitrile] it was 950 ± 750 nM. For `COc1cccc(C)c1CNc1c(N[C@H](C)C(C)(C)C)c(=O)c1=O` [Example 57, 3-(2-Methoxy-6-methyl-benzylamino)-4-(1,2,2-trimethyl-propylamino)-cyclobut-3-ene-1,2-dione], the percent contraction at 30 µM was found to be 160% and the inhibition at 30 µM came out at 29.3 ± 2.3%. On to `CCc1cccc(C)c1CNc1c(NC(C)(C)C)c(=O)c1=O` [Example 58, 3-tert-Butylamino-4-(2-ethyl-6-methyl-benzylamino)-cyclobut-3-ene-1,2-dione], for which the IC50 was found to be 2300 ± 240 nM and the inhibition at 30 µM was found to be 25%. For the molecule `CC(C)(C)Nc1c(NCc2ccc(F)cc2C(F)(F)F)c(=O)c1=O` [Example 59, 3-tert-Butylamino-4-(4-fluoro-2-trifluoromethyl-benzylamino)-cyclobut-3-ene-1,2-dione], the IC50 was 1800 ± 600 nM. On the same count and under the same terms, in the case of `CC(C)(C)Nc1c(NCc2ccc(F)cc2Cl)c(=O)c1=O` [Example 60, 3-tert-Butylamino-4-(2-chloro-4-fluoro-benzylamino)-cyclobut-3-ene-1,2-dione] it was 1400 ± 400 nM; in that of `C[C@@H](Nc1c(NCc2ccc(F)cc2C(F)(F)F)c(=O)c1=O)C(C)(C)C` [Example 61, 3-(4-Fluoro-2-trifluoromethyl-benzylamino)-4-(1,2,2-trimethyl-propylamino)-cyclobut-3-ene-1,2-dione], 1700 ± 1000 nM; in that of `CCC(C)(C)Nc1c(NCc2ccc(F)cc2F)c(=O)c1=O` [Example 62, 3-(2,4-Difluoro-benzylamino)-4-(1,1-dimethyl-propylamino)-cyclobut-3-ene-1,2-dione], 220 ± 40 nM. On to `CCC(C)(C)Nc1c(NCc2ccc(F)cc2Cl)c(=O)c1=O` [Example 63, 3-(2-Chloro-4-fluoro-benzylamino)-4-(1,1-dimethyl-propylamino)-cyclobut-3-ene-1,2-dione], for which the IC50 turned out to be 1500 ± 1000 nM. In the case of `CC(C)(C)Nc1c(NCc2cc(C(F)(F)F)ccc2F)c(=O)c1=O` [Example 64, 3-tert-Butylamino-4-(2-fluoro-5-trifluoromethyl-benzylamino)-cyclobut-3-ene-1,2-dione], the IC50 was 4900 ± 2700 nM.

Consider `C[C@@H](Nc1c(NCc2cc(F)ccc2Cl)c(=O)c1=O)C(C)(C)C` [Example 65, 3-(2-Chloro-5-fluoro-benzylamino)-4-(1,2,2-trimethyl-propylamino)-cyclobut-3-ene-1,2-dione], for which the IC50 was found to be 850 ± 410 nM. On the same count and under the same terms, in the case of `C[C@@H](Nc1c(NCc2cc(F)ccc2F)c(=O)c1=O)C(C)(C)C` [Example 66, 3-(2.5-Difluoro-benzylamino)-4-(1,2,2-trimethyl-propylamino)-cyclobut-3-ene-1,2-dione] it was 980 ± 400 nM.

As to `CC(C)(C)Nc1c(NCc2ccc(F)c(Cl)c2)c(=O)c1=O` [Example 67, 3-tert-Butylamino-4-(3-chloro-4-fluoro-benzylamino)-cyclobut-3-ene-1,2-dione], the IC50 was 5300 ± 1200 nM and the inhibition at 30 µM turned out to be 47.7%. `CC(C)(C)Nc1c(NCc2ccc(F)c(F)c2)c(=O)c1=O` [Example 68, 3-tert-Butylamino-4-(3,4-difluoro-benzylamino)-cyclobut-3-ene-1,2-dione]: the IC50 worked out at 2200 ± 800 nM.

On to `C[C@@H](Nc1c(NCc2ccc(F)c(Cl)c2)c(=O)c1=O)C(C)(C)C` [Example 69, 3-(3-Chloro-4-fluoro-benzylamino)-4-(1,2,2-trimethyl-propylamino)-cyclobut-3-ene-1,2-dione], for which the IC50 was determined as 5400 ± 2100 nM. Still for that read-out and setting: in the case of `CCC(C)(C)Nc1c(NCc2ccc(F)c(F)c2)c(=O)c1=O` [Example 70, 3-(3,4-Difluoro-benzylamino)-4-(1,1-dimethyl-propylamino)-cyclobut-3-ene-1,2-dione] it was 1600 ± 770 nM; in that of `CC(C)(C)Nc1c(NCc2cc(F)cc(F)c2)c(=O)c1=O` [Example 71, 3-tert-Butyl amino-4-(3,5-difluoro-benzylamino)-cyclobut-3-ene-1,2-dione], 2600 ± 400 nM. Still for that read-out and setting: in the case of `CC(C)(C)Nc1c(NCc2cc(F)cc(C(F)(F)F)c2)c(=O)c1=O` [Example 72, 3-tert-Butylamino-4-(3-fluoro-5-trifluoromethyl-benzylamino)-cyclobut-3-ene-1,2-dione] it was 6500 ± 3600 nM.

Take `CC(C)(C)Nc1c(NCc2cc(C(F)(F)F)cc(C(F)(F)F)c2)c(=O)c1=O` [Example 73, 3-(3.5-Bis-trifluoromethyl-benzylamino)-4-tert-butylamino-cyclobut-3-ene-1,2-dione]: the IC50 is 23500 ± 8100 nM and the inhibition at 30 µM stood at 35.8 ± 4.9%.

For `CCC(C)(C)Nc1c(NCc2cc(F)cc(F)c2)c(=O)c1=O` [Example 74, 3-(3,5-Difluoro-benzylamino)-4-(1,1-dimethyl-propylamino)-cyclobut-3-ene-1,2-dione], the IC50 was determined as 750 ± 450 nM.
